Assay results published in PubChem BioAssay (NCI).
Several values for one entry are separate records, joined by “and”; a condition that tells them apart may be missing. Equal entries are not always repeated.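 Dose response: 5 concentrations. Exposure: 48 h. Format: 96-well plates. Endpoint: linear interpolation; highest concentration if not reached. GI50 is the concentration that inhibits growth by half. TGI denotes the concentration required for complete inhibition of growth.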 Where a SMILES comes first, the peptide text is derived from it. The star is where a group is joined. Boc = CC(C)(C)OC(=O)*; Bn = c1ccc(C*)cc1

Columns and labels:
Test in all cases: NCI tumour cell line growth inhibition, 48 h
A498 renal = tested on: A498 renal
HS 578T breast = tested on: HS 578T breast
SW-620 colon = tested on: SW-620 colon
MCF7 breast = tested on: MCF7 breast
KM12 colon = tested on: KM12 colon

Row | Compound | TGI (A498 renal) | TGI (HS 578T breast) | TGI (SW-620 colon) | TGI (MCF7 breast) | TGI (KM12 colon) | GI50 (A498 renal)
1 | O=C(Nc1cccc(C(=O)NCCCO)c1)/C(=C/c1ccccc1)NC(=O)c1ccccc1 | > 100 µM | > 100 µM | > 100 µM | > 100 µM | > 100 µM | 
2 | Cc1ccsc1C(=S)Nc1ccc(Cl)c(/C=N/OC(C)C)c1 | > 100 µM | > 100 µM | > 100 µM | 62.6 µM | > 100 µM | 
3 | O=S(=O)(c1cc(Cl)ccc1Cl)N1CCN(c2cccc(Cl)c2)CC1 | > 100 µM | > 100 µM | > 100 µM | > 100 µM | > 100 µM | 
4 | CNC(=O)C(CC(C)C)NC(=O)C(C)NC(=O)C(Cc1ccc(OCc2ccccc2)cc1)NC(=O)C(COCc1ccccc1)NC(=O)OC(C)(C)C (stereo unspecified) (Boc-S(Bn)Y(Bn)AL-NHMe; configuration not given here) | 94 µM and 30.3 µM | 58.1 µM and 31.4 µM | 31 µM and 28.7 µM | 35.5 µM and 26.2 µM | > 44.2 µM and 40.3 µM | 33.7 µM and 12.5 µM
5 | CCNc1nnc(-c2ccccc2Nc2ccccc2-c2nnc(NCC)s2)s1 | 91 µM | > 65.7 µM | > 100 µM | 29.7 µM | 37.2 µM | 
6 | CCC1CCC2c3c([nH]c4ccc(C)cc34)C3C(=O)N(N(C)C)C(=O)C3C2C1 (stereo unspecified) | > 100 µM | 33 µM | > 100 µM | > 100 µM | > 100 µM | 
7 | COc1ccc(-c2nc3c(C(=O)NCCN(C)C)cccc3c3ccccc23)cc1 | 8.96 µM | 28.9 µM | 14.5 µM | 8.65 µM | 14.9 µM | 
8 | Cc1cn(C2CCN(CC3COC(C)(C)O3)O2)c(=O)[nH]c1=O (stereo unspecified) | > 100 µM | > 100 µM | > 100 µM | > 100 µM | > 100 µM | 
9 | CN1CC2=C(NC(=S)NC2c2ccccc2Cl)/C(=C/c2ccccc2Cl)C1 (stereo unspecified) | > 100 µM | > 100 µM | > 100 µM | > 100 µM | > 100 µM | 
10 | O=[N+]([O-])/C(Cl)=C/C(=C1/Nc2ccccc2O1)[N+](=O)[O-] | 38.3 µM | 84.1 µM | 72.3 µM | > 100 µM | 36.2 µM | 
11 | CC(C)Cn1cnc2c(Cl)nc3ccccc3c21 | > 100 µM | > 100 µM | > 100 µM | > 100 µM | > 100 µM | 
12 | O=C1C=C(c2ccccc2)O/C1=C\C(=O)c1ccc(Cl)cc1 | > 100 µM | 61.5 µM | 10.1 µM | 34.9 µM | 80.5 µM | 
13 | C(#CC1(Nc2ccccc2)CCN(Cc2ccccc2)CC1)C1(Nc2ccccc2)CCN(Cc2ccccc2)CC1 | > 46.4 µM | 37.2 µM | > 56.2 µM | > 56.2 µM | > 56.2 µM | 
14 | O=c1[nH]c(=O)n(CCOc2ccc(Cl)cc2)cc1Nc1ccccc1 | > 100 µM | > 100 µM | > 100 µM | > 100 µM | > 100 µM | 
15 | CC1=N[C@@](C)(C2CC3C=CC2C3=O)COC1=O (stereo partly specified) | > 100 µM | > 100 µM | > 100 µM | > 100 µM | > 100 µM | 
16 | CC(=O)Nc1cc2nc3n(c2cc1C)CCC3OC(C)=O (stereo unspecified) | > 100 µM | > 100 µM | > 100 µM | > 100 µM | > 100 µM | 
17 | CC1(C)CCCCCCCCCC2CC2CCC(C)(C)C1=O (stereo unspecified) | > 100 µM | 82.3 µM | > 100 µM | 30 µM | 34.9 µM | 
18 | O=S(=O)(CCC[C@H]1[C@@H](CCOCc2ccccc2)C2CCCN1O2)c1ccccc1 (stereo partly specified) | > 100 µM | > 100 µM | > 100 µM | > 100 µM | > 100 µM | 
19 | CCOC(=O)C1(N)CC1 | > 100 µM | > 100 µM | > 100 µM | > 100 µM | > 100 µM | 
20 | COc1cc(C2OC[C@@H]3C(=O)OC[C@H]23)cc(O)c1OC (stereo partly specified) | > 100 µM | > 100 µM | > 100 µM | > 100 µM | > 100 µM | 
21 | CN1CCN(Cc2nc3c(s2)CCc2sccc2-3)CC1 | 83.4 µM | > 100 µM | > 100 µM | > 100 µM | > 100 µM | 
22 | O=c1[nH]nc(Cc2ccccc2)n1/N=C/c1ccc([N+](=O)[O-])cc1 | > 100 µM | > 100 µM | > 100 µM | > 100 µM | > 100 µM | 
23 | CCCC(=O)OC[n+]1ccc(-c2c(COC(=O)NC(C)C)c(COC(=O)NC(C)C)c3n2CCC3)cc1 | > 100 µM | > 100 µM | > 100 µM | > 100 µM | > 100 µM | 
24 | C=C(Cl)C(C)(Cl)CCC(Cl)C(C)C (stereo unspecified) | > 100 µM | > 100 µM | > 100 µM | > 100 µM | > 100 µM | 
25 | C#CCOCn1cc(C)c(=O)[nH]c1=O | > 100 µM | > 100 µM | > 100 µM | > 100 µM | > 100 µM | 
26 | O=C(CN=C(CN(c1ccccc1)c1ccccc1)Oc1ccc(Cl)cc1Cl)n1ccnc1 | > 100 µM | > 100 µM | > 100 µM | > 100 µM | > 100 µM | 
27 | Cc1cccc(C)c1N=Nc1ccc(O)c(CN(C)C)c1 | > 100 µM | > 100 µM | > 100 µM | > 100 µM | > 100 µM | 
